Measured values published in US4100346A, “Certain 7(o-amino-methyl- or methylaminomethylphenyl- or cyclohexadienyl- or thienylacetamide)-3[1-carboxymethyl-(or ethyl- or propyl-)-tetrazol-5-ylthiomethyl]-3-cephem-4-carboxylic acids” (Bristol-Myers Company, priority 1976, dated 1978).
Values after ≈ are worked out from the molar mass of the structure shown. Where two headings read alike, the source gives them in different places.

Tests used:
[1] = system: Staphylococcus Aureus; assay: Effect of inoculum size on susceptibility of Staphylococcus aureus; assay type: cell-based; details: for MIC: Staphylococcus aureus, geometric means, read-out: Minimum inhibitory concentration
[2] = system: Citrobacter sp.; assay: Intramuscular treatment of systemically infected mice; assay type: in vivo; details: im, Citrobacter sp. strain 1, challenge 5×10^6 -2×10^7, treated 1 and 3.5 hours after infection, read-out: PD50 /treatment
Text: (§1) Treatment of Systemically Infected Mice. The procedures were identical with those published previously [Leitner et al., BL-S640, a Cephalosporin With a Broad Spectrum of Antibacterial Activity: Bioavailability and Therapeutic Properties in Rodents, Antimicrob. Agents Chemother. 7:306-310, (1975)], except that:
(§2) (a) the hog gastric mucin used in infections with Staphylococcus aureus No. 2 was purchased from American Laboratories, Inc., Omaha, Neb. (lot No. 154163) and b) that the medium used to suspend all other organisms contained 3% (rather than 4%) hog gastric mucin (type 1701W, Wilson Laboratories, Inc., Park Forest South, Ill.).
(§3) *Animals were treated twice; 1 and 3.5 hours after infection.

[3] = system: Escherichia coli; assay: as above; assay type: in vivo; details: im, 3.5 h, read-out: PD50 /treatment
Text: as §1, §2, §3

[4] = system: Klebsiella pneumoniae; assay: as above; assay type: in vivo; details: im, 3.5 h, read-out: PD50 /treatment
Text: as §1, §2, §3

[5] = system: Proteus mirabilis; assay: as above; assay type: in vivo; details: im, 3.5 h, read-out: PD50 /treatment
Text: as §1, §2, §3

[6] = system: Proteus morganii; assay: as above; assay type: in vivo; details: Morganella morganii, im, 3.5 h, read-out: PD50 /treatment
Text: as §1, §2, §3

[7] = system: Proteus rettgeri; assay: as above; assay type: in vivo; details: Providencia rettgeri, im, Proteus rettgeri strain 4, challenge 2×10^6 -3×10^6, treated 1 and 3.5 hours after infection, read-out: PD50 /treatment
Text: as §1, §2, §3

[8] = system: Proteus vulgaris; assay: as above; assay type: in vivo; details: im, 3.5 h, read-out: PD50 /treatment
Text: as §1, §2, §3

[9] = system: Providencia stuartii; assay: as above; assay type: in vivo; details: im, 3.5 h, read-out: PD50 /treatment
Text: as §1, §2, §3

[10] = Recovery in urine after intramuscular injection; details: rat, im, 10 mg/kg
[11] = system: Edwardsiella tarda; assay: Growth inhibitory activity, antibiotic dilution technique; details: read-out: Minimum inhibitory concentration
[12] = system: Arizona hinshawii; assay: as above; details: Salmonella enterica, read-out: Minimum inhibitory concentration
[13] = system: Escherichia coli; assay: Effect of inoculum size on susceptibility of Enterobacteriaceae
[14] = system: Klebsiella pneumoniae; assay: as above
[15] = Antibiotic concentration in blood after intramuscular injection; details: mouse, im, 20 mg/kg

Q: Which MIC ([1]; Lacking penicillinase, 3 strains, A, Inoculum of 10^2 organisms) does the source give for `Cc1nnc(SCC2=C(C(=O)O)N3C(=O)[C@@H](NC(=O)Cn4cnnn4)[C@H]3SC2)s1` [Cefazolin] here?
A: 0.13 µg/mL (≈ 0.286 µM)

Q: What about the MIC ([1]; Lacking penicillinase, 3 strains, B, inoculum of 10^6 organisms) of the same compound?
A: 0.2 µg/mL (≈ 0.44 µM)

Q: What about the MIC ([1]; Penicillinase producer, 26 strains, A, Inoculum of 10^2 organisms) of the same compound?
A: 0.22 µg/mL (≈ 0.484 µM)

Q: And the MIC ([1]; Penicillinase producer, 26 strains, B, inoculum of 10^6 organisms)?
A: 0.79 µg/mL (≈ 1.74 µM)

Q: And the “effect of cell concentration on growth inhibitory activity” value ([1]; penicillinase-producing strains)?
A: moderately

Q: And the ED50 [2]?
A: 110 mg/kg

Q: And the ED50 ([3]; Escherichia coli strain 1, challenge 2×10^5 organisms, treated 1 and 3.5 hours after infection)?
A: 1.9 mg/kg

Q: What about the ED50 ([3]; Escherichia coli strain 8, challenge 6×10^5 -4×10^6, treated 1 and 3.5 hours after infection) of the same compound?
A: 4.9 mg/kg

Q: What about the ED50 ([3]; Escherichia coli strain 9, challenge 7×10^3 -2×10^4, treated 1 and 3.5 hours after infection) of the same compound?
A: 5.3 mg/kg

Q: What about the ED50 ([4]; Klebsiella pneumoniae strain 1, challenge 4×10^4 -5×10^4, treated 1 and 3.5 hours after infection) of the same compound?
A: 16 mg/kg

Q: And the ED50 ([4]; Klebsiella pneumoniae strain 7, challenge 9×10^2 -1×10^3, treated 1 and 3.5 hours after infection)?
A: 94 mg/kg

Q: What about the ED50 ([5]; Proteus mirabilis strain 1, challenge 7×10^6 -9×10^6, treated 1 and 3.5 hours after infection) of the same compound?
A: 16 mg/kg

Q: What about the ED50 ([5]; Proteus mirabilis strain 5, challenge 9×10^5 -3×10^6, treated 1 and 3.5 hours after infection) of the same compound?
A: 6.2 mg/kg

Q: And the ED50 ([5]; Proteus mirabilis strain 8, challenge 6×10^5 -4×10^6, treated 1 and 3.5 hours after infection)?
A: 6.5 mg/kg

Q: And the ED50 ([6]; Proteus morganii strain 1, challenge 1×10^5 -4×10^5, treated 1 and 3.5 hours after infection)?
A: 62 mg/kg

Q: What about the ED50 ([6]; Proteus morganii strain 2, challenge 2×10^6 -3×10^6, treated 1 and 3.5 hours after infection) of the same compound?
A: 140 mg/kg

Q: And the ED50 [7]?
A: 9.5 mg/kg

Q: And the ED50 ([8]; Proteus vulgaris strain 1, challenge 1×10^6 -2×10^6, treated 1 and 3.5 hours after infection)?
A: 11 mg/kg

Q: What about the ED50 ([8]; Proteus vulgaris strain 3, challenge 4×10^5, treated 1 and 3.5 hours after infection) of the same compound?
A: 8 mg/kg

Q: What about the ED50 ([9]; Providencia stuartii strain 2, challenge 1×10^6 ×5×10^6, treated 1 and 3.5 hours after infection) of the same compound?
A: 50 mg/kg

Q: What about the ED50 ([9]; Providencia stuartii strain 3, challenge 2×10^7, treated 1 and 3.5 hours after infection) of the same compound?
A: 70 mg/kg

Q: What about the dose excreted at 24 h [10] of the same compound?
A: 75%

Q: What about the MIC [11] of the same compound?
A: 0.71 µg/mL (≈ 1.56 µM)

Q: And the MIC [12]?
A: 1 µg/mL (≈ 2.2 µM)

Q: And the MIC ([13]; read-out: Minimum Inhibitory Concentration, Escherichia coli strain 1, A, Inoculum of 10^2 organisms)?
A: 1 µg/mL (≈ 2.2 µM)

Q: And the MIC ([13]; read-out: Minimum Inhibitory Concentration, Escherichia coli strain 1, B, Inoculum of 10^6 organisms)?
A: 4 µg/mL (≈ 8.8 µM)

Q: And the MIC ([13]; read-out: Minimum Inhibitory Concentration, Escherichia coli strain 2, A, Inoculum of 10^2 organisms)?
A: 2 µg/mL (≈ 4.4 µM)

Q: And the MIC ([13]; read-out: Minimum Inhibitory Concentration, Escherichia coli strain 2, B, Inoculum of 10^6 organisms)?
A: 16 µg/mL (≈ 35.2 µM)

Q: And the MIC ([13]; read-out: Minimum Inhibitory Concentration, Escherichia coli strain 3, A, Inoculum of 10^2 organisms)?
A: 1 µg/mL (≈ 2.2 µM)

Q: And the MIC ([13]; read-out: Minimum Inhibitory Concentration, Escherichia coli strain 3, B, Inoculum of 10^6 organisms)?
A: 2 µg/mL (≈ 4.4 µM)

Q: What about the MIC ([13]; read-out: Minimum Inhibitory Concentration, Escherichia coli strain 4, A, Inoculum of 10^2 organisms) of the same compound?
A: 1 µg/mL (≈ 2.2 µM)

Q: And the MIC ([13]; read-out: Minimum Inhibitory Concentration, Escherichia coli strain 4, B, Inoculum of 10^6 organisms)?
A: 2 µg/mL (≈ 4.4 µM)

Q: What about the MIC ([13]; read-out: Minimum Inhibitory Concentration, Escherichia coli strain 5, A, Inoculum of 10^2 organisms) of the same compound?
A: 1 µg/mL (≈ 2.2 µM)

Q: What about the MIC ([13]; read-out: Minimum Inhibitory Concentration, Escherichia coli strain 5, B, Inoculum of 10^6 organisms) of the same compound?
A: 2 µg/mL (≈ 4.4 µM)

Q: And the MIC ([13]; read-out: Minimum Inhibitory Concentration, Escherichia coli strain 6, A, Inoculum of 10^2 organisms)?
A: 1 µg/mL (≈ 2.2 µM)

Q: And the MIC ([13]; read-out: Minimum Inhibitory Concentration, Escherichia coli strain 6, B, Inoculum of 10^6 organisms)?
A: 2 µg/mL (≈ 4.4 µM)

Q: And the MIC ([13]; read-out: Minimum Inhibitory Concentration, Escherichia coli strain 7, A, Inoculum of 10^2 organisms)?
A: 1 µg/mL (≈ 2.2 µM)

Q: What about the MIC ([13]; read-out: Minimum Inhibitory Concentration, Escherichia coli strain 7, B, Inoculum of 10^6 organisms) of the same compound?
A: 2 µg/mL (≈ 4.4 µM)

Q: What about the MIC ([14]; read-out: Minimum Inhibitory Concentration, Klebsiella pneumoniae strain 1, A, Inoculum of 10^2 organisms) of the same compound?
A: 1 µg/mL (≈ 2.2 µM)

Q: What about the MIC ([14]; read-out: Minimum Inhibitory Concentration, Klebsiella pneumoniae strain 1, B, Inoculum of 10^6 organisms) of the same compound?
A: 2 µg/mL (≈ 4.4 µM)

Q: And the MIC ([14]; read-out: Minimum Inhibitory Concentration, Klebsiella pneumoniae strain 2, A, Inoculum of 10^2 organisms)?
A: 1 µg/mL (≈ 2.2 µM)

Q: What about the MIC ([14]; read-out: Minimum Inhibitory Concentration, Klebsiella pneumoniae strain 2, B, Inoculum of 10^6 organisms) of the same compound?
A: 4 µg/mL (≈ 8.8 µM)

Q: What about the MIC ([14]; read-out: Minimum Inhibitory Concentration, Klebsiella pneumoniae strain 3, A, Inoculum of 10^2 organisms) of the same compound?
A: 1 µg/mL (≈ 2.2 µM)

Q: What about the MIC ([14]; read-out: Minimum Inhibitory Concentration, Klebsiella pneumoniae strain 3, B, Inoculum of 10^6 organisms) of the same compound?
A: 4 µg/mL (≈ 8.8 µM)

Q: What about the MIC ([14]; read-out: Minimum Inhibitory Concentration, Klebsiella pneumoniae strain 4, A, Inoculum of 10^2 organisms) of the same compound?
A: 1 µg/mL (≈ 2.2 µM)

Q: What about the MIC ([14]; read-out: Minimum Inhibitory Concentration, Klebsiella pneumoniae strain 4, B, Inoculum of 10^6 organisms) of the same compound?
A: 4 µg/mL (≈ 8.8 µM)

Q: And the MIC ([14]; read-out: Minimum Inhibitory Concentration, Klebsiella pneumoniae strain 5, A, Inoculum of 10^2 organisms)?
A: 1 µg/mL (≈ 2.2 µM)

Q: What about the MIC ([14]; read-out: Minimum Inhibitory Concentration, Klebsiella pneumoniae strain 5, B, Inoculum of 10^6 organisms) of the same compound?
A: 4 µg/mL (≈ 8.8 µM)

Q: What about the MIC ([14]; read-out: Minimum Inhibitory Concentration, Klebsiella pneumoniae strain 6, A, Inoculum of 10^2 organisms) of the same compound?
A: 1 µg/mL (≈ 2.2 µM)

Q: And the MIC ([14]; read-out: Minimum Inhibitory Concentration, Klebsiella pneumoniae strain 6, B, Inoculum of 10^6 organisms)?
A: 32 µg/mL (≈ 70.4 µM)

Q: And the Cmax [15]?
A: 31000 ng/mL
